DC50 data for 13 molecules are collected here from patent US20230322761A1, “DEGRADATION OF BRUTON'S TYROSINE KINASE (BTK) BY CONJUGATION OF BTK INHIBITORS WITH E3 LIGASE LIGAND AND METHODS OF USE” (BEIGENE, LTD., priority 2020, published 2023).

In the assay the target is T1, BTK (Homo sapiens, UniProt Q06187).
T1 construct: endogenous in cells; host or cells: TMD-8 cells
T1 sequence (Q06187 whole entry): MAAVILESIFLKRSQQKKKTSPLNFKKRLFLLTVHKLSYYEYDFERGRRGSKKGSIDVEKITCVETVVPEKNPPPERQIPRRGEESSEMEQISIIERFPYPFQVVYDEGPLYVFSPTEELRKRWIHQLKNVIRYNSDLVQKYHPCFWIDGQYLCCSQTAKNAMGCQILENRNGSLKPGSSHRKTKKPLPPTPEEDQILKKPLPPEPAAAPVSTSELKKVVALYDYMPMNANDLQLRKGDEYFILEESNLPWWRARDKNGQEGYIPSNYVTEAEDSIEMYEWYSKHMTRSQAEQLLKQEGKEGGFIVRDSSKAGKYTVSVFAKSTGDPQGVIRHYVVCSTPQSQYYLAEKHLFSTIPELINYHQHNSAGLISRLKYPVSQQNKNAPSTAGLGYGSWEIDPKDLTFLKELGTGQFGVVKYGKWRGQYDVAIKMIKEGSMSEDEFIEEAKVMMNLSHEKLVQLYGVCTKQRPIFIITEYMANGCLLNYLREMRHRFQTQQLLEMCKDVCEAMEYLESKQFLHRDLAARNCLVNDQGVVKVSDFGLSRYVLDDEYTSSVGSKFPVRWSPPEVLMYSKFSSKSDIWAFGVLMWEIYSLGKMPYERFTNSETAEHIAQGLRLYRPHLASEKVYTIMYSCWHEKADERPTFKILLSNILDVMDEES
Kind of assay: BTK degradation in TMD-8 cells, HTRF assay after 6 h treatment. It counts as cell-based. The note with it: IC50 (DC50) of BTK degradation. In short, it runs like this: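 TMD-8 cells treated for 6 h with 8 compound doses in 6-fold dilution steps from a 1 mM 500× DMSO stock (0.2% DMSO), then lysed 30 min at room temperature. BTK in lysate detected by HTRF (665/620 nm) after overnight antibody incubation; DC50 from four-parameter curve fit.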
In general, DC50 refers to the concentration giving 50% degradation. A lower DC50 goes with degradation at low concentration. Molecule `Cc1cc(CCN2CCN(c3ccc(-c4cnc5[nH]nc(-c6ccc([C@@H](C)NC(=O)c7nc(C(C)(C)C)no7)c(C)c6)c5c4)cc3)CC2)ccc1C1CCC(=O)NC1=O` (stereo partly drawn) [Example 87, 3-(tert-butyl)-N-((1R)-1-(4-(5-(4-(4-(4-(2,6-dioxopiperidin-3-yl)-3-methylphenethyl)piperazin-1-yl)phenyl)-1H-pyrazolo[3,4-b]pyridin-3-yl)-2-methylphenyl)ethyl)-1,2,4-oxadiazole-5-carboxamide] gave a DC50 of 7.21 nM. With `Cc1cc(-c2n[nH]c3ncc(-c4ccc(CCN5CCC(c6ccc([C@@H]7CCC(=O)NC7=O)cc6)CC5)cc4)cc23)ccc1CNC(=O)c1nc(C(C)(C)C)no1` [Example 88, (S)-3-(tert-butyl)-N-(4-(5-(4-(2-(4-(4-(2,6-dioxopiperidin-3-yl)phenyl)piperidin-1-yl)ethyl)phenyl)-1H-pyrazolo[3,4-b]pyridin-3-yl)-2-methylbenzyl)-1,2,4-oxadiazole-5-carboxamide], half-maximal degradation (DC50) was put at 9.41 nM. The figure for `Cc1cc(-c2n[nH]c3ncc(-c4ccc(CCN5CCC(c6ccc([C@H]7CCC(=O)NC7=O)cc6)CC5)cc4)cc23)ccc1CNC(=O)c1nc(C(C)(C)C)no1` [Example 89, (R)-3-(tert-butyl)-N-(4-(5-(4-(2-(4-(4-(2,6-dioxopiperidin-3-yl)phenyl)piperidin-1-yl)ethyl)phenyl)-1H-pyrazolo[3,4-b]pyridin-3-yl)-2-methylbenzyl)-1,2,4-oxadiazole-5-carboxamide] is 0.635 nM; for `Cc1cc(-c2n[nH]c3ncc(-c4ccc(N5CCN(CC6CCN(c7cc(F)ccc7N7CCC(=O)NC7=O)CC6)CC5)cc4)cc23)ccc1[C@@H](C)NC(=O)c1noc(C(C)(C)C)n1` [Example 90, (R)-5-(tert-butyl)-N-(1-(4-(5-(4-(4-((1-(2-(2,4-dioxotetrahydropyrimidin-1(2H)-yl)-5-fluorophenyl)piperidin-4-yl)methyl)piperazin-1-yl)phenyl)-1H-pyrazolo[3,4-b]pyridin-3-yl)-2-methylphenyl)ethyl)-1,2,4-oxadiazole-3-carboxamide] it is more than 2000 nM; for `Cc1cc(-c2n[nH]c3ncc(-c4ccc(N5CCN(CCC6CCN(c7ccc([C@H]8CCC(=O)NC8=O)cc7)CC6)CC5)cc4)cc23)ccc1CNC(=O)c1noc(C(C)(C)C)n1` [Example 91, (R)-5-(tert-butyl)-N-(4-(5-(4-(4-(2-(1-(4-(2,6-dioxopiperidin-3-yl)phenyl)piperidin-4-yl)ethyl)piperazin-1-yl)phenyl)-1H-pyrazolo[3,4-b]pyridin-3-yl)-2-methylbenzyl)-1,2,4-oxadiazole-3-carboxamide] it is 1.97 nM. Under `Cc1cc(-c2n[nH]c3ncc(-c4ccc(N5CCN(CCC6CCN(c7ccc([C@@H]8CCC(=O)NC8=O)cc7)CC6)CC5)cc4)cc23)ccc1CNC(=O)c1noc(C(C)(C)C)n1` [Example 92, (S)-5-(tert-butyl)-N-(4-(5-(4-(4-(2-(1-(4-(2,6-dioxopiperidin-3-yl)phenyl)piperidin-4-yl)ethyl)piperazin-1-yl)phenyl)-1H-pyrazolo[3,4-b]pyridin-3-yl)-2-methylbenzyl)-1,2,4-oxadiazole-3-carboxamide] stands 7.24 nM. Under `Cc1cc(-c2n[nH]c3ncc(-c4ccc(N5CCN(CC6CCN(c7ccc(N8CCC(=O)NC8=O)cc7)CC6)CC5)cc4)cc23)ccc1CNC(=O)c1csc(C(C)(C)C)n1` [Example 93, 2-(tert-butyl)-N-(4-(5-(4-(4-((1-(4-(2,4-dioxotetrahydropyrimidin-1(2H)-yl)phenyl)piperidin-4-yl)methyl)piperazin-1-yl)phenyl)-1H-pyrazolo[3,4-b]pyridin-3-yl)-2-methylbenzyl)thiazole-4-carboxamide] stands 28.8 nM; under `Cc1cc(-c2n[nH]c3ncc(-c4ccc(N5CCN(CC6CCN(c7ccc(N8CCC(=O)NC8=O)cc7)CC6)CC5)cc4)cc23)ccc1CNC(=O)c1cnc(C(C)(C)C)s1` [Example 94, 2-(tert-butyl)-N-(4-(5-(4-(4-((1-(4-(2,4-dioxotetrahydropyrimidin-1(2H)-yl)phenyl)piperidin-4-yl)methyl)piperazin-1-yl)phenyl)-1H-pyrazolo[3,4-b]pyridin-3-yl)-2-methylbenzyl)thiazole-5-carboxamide], 13.1 nM; under `Cc1cc(-c2n[nH]c3ncc(-c4cccc(N5CCN(CC6CCN(c7ccc(N8CCC(=O)NC8=O)cc7)CC6)CC5)c4)cc23)ccc1[C@@H](C)NC(=O)c1noc(C(C)(C)C)n1` [Example 95, (R)-5-(tert-butyl)-N-(1-(4-(5-(3-(4-((1-(4-(2,4-dioxotetrahydropyrimidin-1(2H)-yl)phenyl)piperidin-4-yl)methyl)piperazin-1-yl)phenyl)-1H-pyrazolo[3,4-b]pyridin-3-yl)-2-methylphenyl)ethyl)-1,2,4-oxadiazole-3-carboxamide], 71.4 nM. On to `Cc1cc(-c2n[nH]c3ncc(-c4ccc(N5CCN(CC6CCN(c7ccc(N8CCC(=O)NC8=O)cc7)CC6)CC5)cc4)cc23)ccc1[C@@H](C)NC(=O)c1ccc(C(C)(C)O)cc1F` [Example 96, (R)—N-(1-(4-(5-(4-(4-((1-(4-(2,4-dioxotetrahydropyrimidin-1(2H)-yl)phenyl)piperidin-4-yl)methyl)piperazin-1-yl)phenyl)-1H-pyrazolo[3,4-b]pyridin-3-yl)-2-methylphenyl)ethyl)-2-fluoro-4-(2-hydroxypropan-2-yl)benzamide], for which the DC50 is more than 2000 nM. As for `Cc1cc(-c2n[nH]c3ncc(-c4ccc(N5CCN(CC6CCN(c7ccc(N8CCC(=O)NC8=O)cc7)CC6)CC5)c(F)c4)cc23)ccc1[C@@H](C)NC(=O)c1noc(C(C)(C)C)n1` [Example 97, (R)-5-(tert-butyl)-N-(1-(4-(5-(4-(4-((1-(4-(2,4-dioxotetrahydropyrimidin-1(2H)-yl)phenyl)piperidin-4-yl)methyl)piperazin-1-yl)-3-fluorophenyl)-1H-pyrazolo[3,4-b]pyridin-3-yl)-2-methylphenyl)ethyl)-1,2,4-oxadiazole-3-carboxamide], the DC50 came to 5.8 nM. The figure for `Cc1cc(-c2n[nH]c3ncc(-c4ccc(N5CCN(CC6CCN(c7ccc(N8CCC(=O)NC8=O)c(C)c7)CC6)CC5)cc4)cc23)ccc1[C@@H](C)NC(=O)c1nc(C(C)(C)C)no1` [Example 98, (R)-3-(tert-butyl)-N-(1-(4-(5-(4-(4-((1-(4-(2,4-dioxotetrahydropyrimidin-1(2H)-yl)-3-methylphenyl)piperidin-4-yl)methyl)piperazin-1-yl)phenyl)-1H-pyrazolo[3,4-b]pyridin-3-yl)-2-methylphenyl)ethyl)-1,2,4-oxadiazole-5-carboxamide] is 2.68 nM.

With `Cc1c(CNC(=O)c2noc(C(C)(C)C)n2)ccc(-c2n[nH]c3ncc(-c4ccc(N5CCN(CC6CCN(c7ccc(N8CCC(=O)NC8=O)cc7)CC6)CC5)cc4)cc23)c1F` [Example 99, 5-(tert-butyl)-N-(4-(5-(4-(4-((1-(4-(2,4-dioxotetrahydropyrimidin-1(2H)-yl)phenyl)piperidin-4-yl)methyl)piperazin-1-yl)phenyl)-1H-pyrazolo[3,4-b]pyridin-3-yl)-3-fluoro-2-methylbenzyl)-1,2,4-oxadiazole-3-carboxamide], half-maximal degradation (DC50) was put at 17.8 nM.
